Test results published in US20260207589A1, “Combination of Talazoparib and Enzalutamide in the Treatment of Metastatic Castration-Resistant Prostate Cancer” (Pfizer Inc., priority 2022, published 2026).

Assays:
[1] = tested on: patients with mCRPC with HRR gene alterations; assay: TALAPRO-2 (NCT03395197) Phase 3, Part 2, DDR/HRR-deficient cohort (Cohort 2): efficacy; format: in vivo, human
Experimental: In one embodiment, the increase in survival is measured by any of the following: progression free survival (PFS), radiographic PFS (rPFS), and overall survival (OS). PFS, rPFS and OS are clinically meaningful endpoints for measuring an increase in survival for patients treated with the combination of the present invention. […] OS is the length of time from either the date of diagnosis or the start of treatment for a disease, such as cancer, that patients diagnosed with the disease are still alive. In a clinical trial, measuring the PFS and OS are ways to see how well a new treatment works. For purposes of the clinical trial described here, rPFS refers to the time from the date of randomization to first objective evidence of radiographic progression assessed in soft tissue per Response Evaluation Criteria in Solid Tumors version 1.1 (RECIST 1.1) or in bone (upon subsequent confirmation) per Prostate Cancer Working Group (PCWG3) guidelines by Blinded Independent Central Review (BICR), or death, whichever occurs first. For purposes of the clinical trial described here, OS refers to the time from the date of randomization to death due to any cause.
This was an international, Phase 3, randomized, double-blind, two-part study for mCRPC patients, TALAPRO-2 (NCT03395197).
Part 2 was randomized, double-blind, and placebo-controlled and evaluated the efficacy and safety of talazoparib in combination with enzalutamide compared with placebo in combination with enzalutamide. From February 2019 to January 2022, 399 patients (169 from Cohort 1) were randomized 1:1 to receive either talazoparib or matching placebo in combination with open-label enzalutamide once daily. Randomization was stratified by prior novel hormonal therapy or taxane-based chemotherapy, e.g., abiraterone, orteronel, or docetaxel for castration-sensitive prostate cancer (yes/no) and DDR mutational status, also referred to as, homologous recombination repair gene alteration status (deficient vs. non deficient/unknown). Stratification factors were specified by the investigator, and recorded in the interactive web response system (IWRS) before randomization and used for the stratified analysis of the primary efficacy endpoint. However, as the IWRS grouped non-deficient and unknown status, a secondary stratified analysis based on homologous recombination repair gene alteration status derived from the clinical database was also performed and used to identify the non-deficient subpopulation.
Genomic screening to identify alterations in DDR genes was optional for patients in Part 1, but it was required for randomization in Part 2. Mutational status was determined by testing for the presence of mutations in defined DDR genes likely to sensitize to PARP inhibition using next generation sequencing (NGS) based gene panel test. Prior to randomization, patients consented to provide solid tumor tissue (de novo or archival) and/or blood-based samples, which were prospectively assessed for homologous recombination repair (HRR) gene alterations (BRCA1, BRCA2, PALB2, ATM, ATR, CHEK2, FANCA, RAD51C, NBN, MLH1, MRE11A, CDK12) using FoundationOne® CDx and/or FoundationOneLiquid® CDx. […] One patient was enrolled based on ctDNA results only. For exploratory analysis, available blood-based samples (not collected in China) were retrospectively tested using FoundationOneLiquid® CDx to determine the status of patients with a prospectively-assessed status of unknown.

[2] = tested on: patients with mCRPC with HRR gene alterations; conditions: male, human, in vivo
[3] = BICR, measurable soft tissue disease
[4] = DDR-deficient population, overall
[5] = Non-BRCAm HRRm incl. 4 patients without HRR gene mutations (N = 129 vs 115)

With `CNC(=O)c1ccc(N2C(=S)N(c3ccc(C#N)c(C(F)(F)F)c3)C(=O)C2(C)C)cc1F` [Placebo + Enzalutamide] the CR rate [1, 3] was 18.5%, the PD rate [1, 3] was 20.0% and the PR rate [1, 3] was 21.5%. For the same molecule, the “rPFS events by BICR” value ([1]; BRCA1/2 mutations subgroup) was 54 events, the “rPFS, Number of events” value ([1]; BRCAm (N = 71 vs 84)) was 54 (64) n (%) and the “Median PFS2” value ([1]; DDR-deficient population) was 28.1 months. The “Median investigator-assessed rPFS” value ([1]; DDR-deficient population) was 16.9 months, the “Median time to use of cytotoxic chemotherapy” value ([1]; DDR-deficient population) was “NE/NR” and the PFS2 events ([1]; DDR-deficient population) was 61 events. The “PSA response rate (decline from baseline PSA by at least 50%, confirmed)” value ([1]; DDR-deficient population) was 63.1%, the “Time to cytotoxic chemotherapy, events” value ([1]; DDR-deficient population) was 65 events and the “Median rPFS by BICR” value [1, 4] was 13.8 months. For the same molecule, the “rPFS events by BICR” value [1, 4] was 104 events, the “Median OS” value ([1]; DDR-deficient population, interim) was 33.7 months and the “rPFS, Median months (95% CI)” value [1, 5] was 16.7 (13.8, 27.7) months. The “rPFS, Number of events” value [1, 5] was 50 (43) n (%), the “rPFS by BICR, Median” value ([1]; gene subgroup: ATM Cluster) was 27.7 mo and the “rPFS by BICR, Median” value ([1]; gene subgroup: All HRR-deficient) was 13.8 mo. The “rPFS by BICR, Median” value ([1]; gene subgroup: BRCA Cluster) was 11.0 mo, the “rPFS by BICR, Median” value ([1]; gene subgroup: CDK12 Cluster) was 13.8 mo and the “rPFS by BICR, Median” value ([1]; gene subgroup: Only ATM) was 27.7 mo. For the same molecule, the “rPFS by BICR, Median” value ([1]; gene subgroup: Only BRCA1) was 11.7 mo, the “rPFS by BICR, Median” value ([1]; gene subgroup: Only BRCA2) was 11.0 mo and the “rPFS by BICR, Median” value ([1]; gene subgroup: Only CDK12) was 13.8 mo. For the same molecule, the “rPFS by BICR, Median” value ([1]; gene subgroup: Only PALB2) was 8.6 mo, the “rPFS by BICR, Median” value ([1]; gene subgroup: PALB2 Cluster) was 8.3 mo and the “patients who had died” value ([1]; interim OS analysis, 24% maturity overall) was 26.6%. The “OS events (deaths)” value ([1]; interim OS analysis, 96 deaths) was 53 events, the “Median OS (printed: Median rPFS)” value ([1]; non-BRCA1/2 mutations subgroup) was 33.7 months and the “rPFS events by BICR” value ([1]; non-BRCA1/2 mutations subgroup) was 50 events. The “Median rPFS by BICR” value ([1]; non-BRCA1/2 mutations subgroup, N=240) was 16.7 months, the “Objective response rate by BICR (RECIST 1.1)” value ([1]; patients with measurable soft tissue disease at baseline) was 40.0% and the “Patients with Grade 3 or higher TRAEs” value [2] was 28 (14) n (%). For the same molecule, the “Patients with any TRAEs” value [2] was 144 (72.4) n (%).
